Results on three compounds are retold here after ChEMBL document CHEMBL2396614, “Affinity-based screening of MDM2/MDMX-p53 interaction inhibitors by chemical array: identification of novel peptidic inhibitors” (Bioorg Med Chem Lett, 2013).

As usually defined, the IC50 is the concentration needed to halve the response being measured. High values mean weaker potency in that assay, low ones greater potency in that assay. In general, EC50 refers to the midpoint of the concentration-response curve.

A short description of data set [1]: Solubility of the compound in DMEM medium at > 30 uM. It is filed as physicochemical.
Data set [2] deals with T1, Protein Mdm4 (Homo sapiens, UniProt O15151).
T1 sequence (O15151 whole entry): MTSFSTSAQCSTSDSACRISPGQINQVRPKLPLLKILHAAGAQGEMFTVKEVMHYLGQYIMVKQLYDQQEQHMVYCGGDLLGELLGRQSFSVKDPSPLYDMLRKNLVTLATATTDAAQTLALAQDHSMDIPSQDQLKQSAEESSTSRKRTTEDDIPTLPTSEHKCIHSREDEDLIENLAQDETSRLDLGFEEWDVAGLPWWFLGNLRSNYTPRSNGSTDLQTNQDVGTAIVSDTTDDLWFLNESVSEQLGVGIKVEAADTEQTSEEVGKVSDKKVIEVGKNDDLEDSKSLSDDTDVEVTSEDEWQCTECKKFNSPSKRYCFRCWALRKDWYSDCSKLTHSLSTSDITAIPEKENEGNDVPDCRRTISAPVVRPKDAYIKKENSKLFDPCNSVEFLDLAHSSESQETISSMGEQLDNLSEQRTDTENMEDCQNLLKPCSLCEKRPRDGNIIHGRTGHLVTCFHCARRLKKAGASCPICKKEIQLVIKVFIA
In words: Inhibition of MDMX (unknown origin) binding to FAM-LTFEHYWAQLTS-NH2 after 30 mins by fluorescence polarization assay.

Data set [3] addresses E3 ubiquitin-protein ligase Mdm2 (Homo sapiens, UniProt Q00987). Nature of the data set: Inhibition of MDM2 (unknown origin) binding to FAM-LTFEHYWAQLTS-NH2 after 30 mins by fluorescence polarization assay. For orientation: Polarisation of emitted light reports the rotation of a fluorescent probe.
Data set [4] has as its system A549. Nature of the data set: Growth inhibition of human A549 cells after 72 hrs by MTS assay. It is filed as functional, cell-based. The following applies: A549, 72 h. A general note: Tetrazolium dyes change colour on reduction, which living cells bring about.

Residues, ends and D or L forms follow the SMILES beside them. *: point of attachment. Mts = Cc1cc(C)c(S(=O)(=O)*)c(C)c1; Npys = O=[N+]([O-])c1cccnc1S*; X1 = COc1ccc(COC(=O)*)cc1; Boc = CC(C)(C)OC(=O)*; OBn = c1ccc(CO*)cc1; X2 = C1CCCC(O*)CC1; NHNH2 = NN*

E3 ubiquitin-protein ligase Mdm2, sequence (Q00987 whole entry): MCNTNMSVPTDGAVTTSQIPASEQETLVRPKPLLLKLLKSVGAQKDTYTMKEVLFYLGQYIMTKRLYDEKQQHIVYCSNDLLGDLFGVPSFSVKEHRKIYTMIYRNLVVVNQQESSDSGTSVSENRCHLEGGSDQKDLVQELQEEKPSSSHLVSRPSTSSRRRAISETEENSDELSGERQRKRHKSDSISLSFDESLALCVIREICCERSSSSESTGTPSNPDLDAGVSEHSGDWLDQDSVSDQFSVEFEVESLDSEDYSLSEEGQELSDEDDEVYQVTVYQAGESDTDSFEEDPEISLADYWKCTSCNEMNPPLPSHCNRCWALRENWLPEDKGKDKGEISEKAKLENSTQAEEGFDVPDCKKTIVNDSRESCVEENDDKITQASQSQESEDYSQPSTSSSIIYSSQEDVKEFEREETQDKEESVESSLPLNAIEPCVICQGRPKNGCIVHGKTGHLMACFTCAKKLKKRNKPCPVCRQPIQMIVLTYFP

Consider `COc1ccc(COC(=O)N[C@H](C(=O)N[C@@H](CCC(C)=O)C(=O)N[C@@H](Cc2cn(S(=O)(=O)c3c(C)cc(C)cc3C)c3ccccc23)C(=O)N[C@@H](CC(C)C)C(=O)NN)C(C)C)cc1`, for which the solubility result in data set [1] is on record as “Insoluble”. In addition, the results for the IC50 in data set [2] and in data set [3] were 32.4 µM and 8.51 µM, respectively. Also, the concentration for a half-maximal effect (EC50) in data set [4] is more than 30 µM.

`CC[C@H](C)[C@H](NC(=O)[C@H](Cc1ccccc1)NC(=O)[C@H](CSSc1ncccc1[N+](=O)[O-])NC(=O)OC(C)(C)C)C(=O)N[C@@H](CCCNC(=N)NS(=O)(=O)c1c(C)cc(C)cc1C)C(=O)OC` (Boc-C(Npys)FIR(Mts)-OMe): the values for the IC50 in data set [2] and in data set [3] were 42.1 µM and 22.2 µM, respectively. The concentration for a half-maximal effect (EC50) in data set [4] was found to be 13.7 µM.

With `COc1ccc(COC(=O)N[C@@H](C)C(=O)N[C@@H](CCC(=O)OCc2ccccc2)C(=O)N[C@@H](CC(C)C)C(=O)N[C@H](C(=O)N[C@@H](CC(=O)OC2CCCCCC2)C(=O)N[C@@H](C)C(=O)NN)C(C)C)cc1` (X1-AE(OBn)LVD(X2)A-NHNH2), the solubility result in data set [1] is listed as “Insoluble”. The half-inhibitory concentration (IC50) in data set [2] turned out to be 52.5 µM; in data set [3], 21.3 µM. The compound further showed an EC50 in data set [4] of more than 30 µM.
